According to paper PMC12764611 (Nature Communications, 2025):

Target: T1, IGFBP7 (endogenous, HK-2 cells, CETSA) (Homo sapiens, UniProt Q16270)
T1 sequence (Q16270 27-282): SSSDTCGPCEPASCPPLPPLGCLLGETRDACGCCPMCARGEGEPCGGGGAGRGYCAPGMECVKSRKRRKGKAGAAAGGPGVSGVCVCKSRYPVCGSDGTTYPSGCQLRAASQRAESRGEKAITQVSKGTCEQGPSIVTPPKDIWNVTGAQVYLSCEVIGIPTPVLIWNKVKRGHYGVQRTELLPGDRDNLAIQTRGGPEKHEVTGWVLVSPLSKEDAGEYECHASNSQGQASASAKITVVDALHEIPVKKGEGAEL
Test: cellular thermal shift assay, immunoblot
Type: cell-based
Conditions: HK-2 cells with or without LA pretreatment, then lysed and heated

`CN1c2c(nc(N)[nH]c2=O)NC[C@@H]1CNc1ccc(C(=O)N[C@@H](CCC(=O)O)C(=O)O)cc1` [levomefolic acid] was tested, and the “cellular thermal shift assay, immunoblot” value was “analysis showing the stabilisation of IGFBP7 in vitro, with or without LA treatment”.
